Data as given in the NIST ThermoML archive (doi:10.1016/j.jct.2015.06.005).

Key:
[1] = refractive index (Na D-line) (dimensionless); conditions: 100 kPa, Liquid, Standard Abbe refractometry
[2] = 100 kPa, Liquid; for speed of sound: Frequency=3 MHz, Sing-around technique in a fixed-path interferometer; for mass density: Vibrating tube method
[3] = xn = mol fraction of the nth substance listed; conditions: 100 kPa, Liquid, x1 = 1; for speed of sound: Frequency=3 MHz, Sing-around technique in a fixed-path interferometer; for mass density: Vibrating tube method
[4] = refractive index (Na D-line) (dimensionless); xn = mol fraction of the nth substance listed; conditions: 100 kPa, Liquid, Standard Abbe refractometry, x1 = 1

CCCCCCCCN1CCCC1=O [N-octyl-2-pyrrolidone]
Conditions | mass density, [2] [kg/m3] | refractive index, [1] | speed of sound, [2] [m/s]
298.15 K | 918.45 | 1.46346 | 1450.2
303.15 K | 914.8 | 1.46152 | 1432.6
308.15 K | 911.14 | 1.45955 | 1415.3
313.15 K | 907.49 | 1.45761 | 1398
318.15 K | 903.83 | 1.45564 | 1380.9
323.15 K | 900.17 | 1.45367 | 1364

CCCCn1cc[n+](C)c1.F[B-](F)(F)F [1-butyl-3-methylimidazolium tetrafluoroborate] + CCCCCCCCN1CCCC1=O
Conditions | mass density, [3] [kg/m3] | refractive index, [4] | speed of sound, [3] [m/s]
298.15 K | 1198.78 | 1.42058 | 1565.1
303.15 K | 1195.18 | 1.41913 | 1553.2
308.15 K | 1191.6 | 1.41764 | 1541.3
313.15 K | 1188.04 | 1.41621 | 1529.7
318.15 K | 1184.5 | 1.41472 | 1518.2
323.15 K | 1180.98 | 1.4133 | 1506.8
